The target in data set [1] is T1, His-tagged AGO2 recombinant protein (Homo sapiens, UniProt Q9UKV8).
T1 construct: made in house; host or cells: High Five insect cells (baculovirus, Bac-To-Bac; virus made in Sf9)
Briefly: Affinity measurement by surface plasmon resonance (SPR). Format: binding. As to conditions: AGO2 immobilized on CM5 chip; peptide serial dilution 625 to 10000 nM; Langmuir 1:1 model; read-out: equilibrium dissociation constant (KD). The procedure: (§1) The relative orientation of peptide-binding site and AGO2 pocket was depicted. […] The recombinant AGO2 protein was immobilized on CM5 chip and incubated with a serial dilution (from 625 to 10000 nM) of the two peptides, respectively. The association and dissociation between TAT-11, TAT-26 and immobilized AGO2 were tested by SPR (top). The association rate constant (Ka), dissociation rate constant (Kd), and equilibrium dissociation constant (KD) were calculated and presented in the chart (bottom).
A Biacore T200 (GE Healthcare) was used to study the binding affinity of the TAT-11 and TAT-26 peptides with recombinant His-tagged AGO2 protein. The recombinant His-AGO2 and TAT peptides were diluted in HBS-P buffer ([…], 150 mM NaCl and 0.005% P20, pH 7.4). To evaluate the binding affinity, recombinant His-AGO2 was immobilized on a CM5 sensor chip (GE Healthcare, BR100012) via amine coupling (˜7000 RU) for 3600 sec at rate of 5 μl/mins, followed by dissociation for 600 s. After injection of each peptide, the surface was regenerated with an injection of 10 mM NaOH. All sensorgrams were double referenced by subtracting the surface effect from the control flow […] and the buffer effect form the blank buffer. The kinetic values Ka, Kd and KD were obtained using Biacore […] Evaluation Software (GE healthcare) assuming the Langmuir 1:1 binding model.
(In SPR one partner is held on a chip, and binding of the other changes the refractive index at the surface.)

Data set [2] relates to MSI1/AGO2 downstream mRNA. Briefly: qRT-PCR of downstream mRNA targets of MSI1-AGO2, hypoxia versus normoxia. Type of data set: cell-based, human. As to conditions: six targets. The procedure:
FIG. 4A provides a schematic illustrating the full-length and C-terminal (C-term) fragment of human MSI1. The construct of MSI1 C-term was sub-cloned into p-3×Flag-Myc-CMV expression vector. […] Quantification of the fold changes of binding signals was performed by normalizing IP signals to IgG-precipitated controls. The peaks indicated MSI1 or AGO2 palindromic-binding sequence. […] Purified total RNA was subjected to RT-PCR using primers specific for NF2, TP53, CDKN1A, CCND1, CDK4, and HELLS. The mRNA levels under hypoxia were normalized with that under normoxia and presented as relative fold changes in the chart. […] The relative fold change of the number of viable cells in each day was presented in the graph. […] Xenograft tumor size was monitored from day 2 after injection of Flag-control or Flag-C-term. […] Tumor size was then monitored for 22 days. The expression of MIS1-C-term in the xenograft tumor tissue was assessed by Western blot. […] […]
Oligonucleotide specificity was computer tested (BLAST, National Center for Biotechnology Information. Bethesda. Md., USA) by homology search with the human genome and later confirmed by melting curve analysis. […] Signals were detected using 7900HT Fast Real-time PCR system (Applied Biosystems, Foster City, Calif., USA). […]
For orientation: Real-time PCR tracks product formation cycle by cycle.

A further data set in a line: in vitro. The following applies: human.
Data set [3] has as its target T2, MSI1/AGO2 interaction (Homo sapiens, UniProt Q9UKV8). Put plainly: Co-immunoprecipitation of endogenous MSI1 and AGO2 under hypoxia. Format: cell-based. Further details: endogenous in cells. The following applies: 10 μM peptide, hypoxic condition.
The target in data set [4] is T2, MSI1/AGO2 interaction. Put plainly: Split Gaussia luciferase reconstitution reporter assay. Format: cell-based. More on the design: expressed in transfected cells; lysates used for the in vitro read-out. As to conditions: 10 μM peptide; in vitro and in vivo. The method, then: as §1
FIG. 14A provides schematic presentation of the constructs of full-length, C-terminus, and N-terminus of MSI1 as well as wild-type AGO2 for purifying recombinant proteins. FIG. 14B provides pull-down assay with recombinant MSI1 and AGO2 proteins showing that the C-terminus of MSI1 is essential for the direct MSI1/AGO2 interaction. […] FIG. 14D provides the schematic illustration of the split luciferase reconstitution imaging system to real-time monitor the interaction between MSI1 and AGO2.
To use Gaussia luciferase (Gluc) for detecting protein-protein interaction, we split Gaussia luciferase into NGluc (N-terminal Gluc, 106 a.a.) and CGluc (C-terminal Glue. 79 a.a.)^53,54. The two fragments were amplified by polymerase chain reaction (PCR) and subjected to construct fusion protein with MSI1 and AGO2 by the pcDNA 3.1 and pCMV backbone, respectively. Each fusion protein contains a flexible linker (GGGGS)2 between the protein and polypeptides of split luciferase^55,56. Stable cell lines were obtained by stable transfection of both fusion protein expressive plasmids in 05 MG GBM cell line with Hygromycin B (Sigma Aldrich Co., St. Louis, […]., USA) and G418 sulfate (Merck Co., Berlin, Germany). […] The bioluminescent signals were acquired by Wallac 1420 Victor^2 Microplate Reader (Perkin Elmer, Waltham. Mass., USA) equipped with auto-dispenser to avoid rapid decay of GLuc. […] The region of interests (ROI) was automatically chosen by the Living Image 4.2 software and quantified as photon flux in a certain area per second (photons/s/cm^2).
For orientation: A reporter such as luciferase makes a cellular process visible.

A further data set deals with 05 MG cells. Briefly: Cellular uptake of fluorescein labeled peptides, fluorescence read by ELISA reader.
Data set [5] concerns MSI1 translocation into the cytosol in 05 MG cells. Put plainly: MSI1 subcellular translocation (immunostaining, fractionation immunoblot). The following applies: LMB 10 ng/mL, 2 h pre-treatment; hypoxic and cisplatin treatment. Format: cell-based, human. The procedure: Magnifying power: 200× (top) and 600× (bottom). Quantitation of cells expressing cytoplasmic or nuclear MSI1 is shown in the bar graph on the right. FIG. 1B 05 MG cells pre-treated with or without nuclear export inhibitor leptomycinB (LMB) (10 ng/mL, 2 h) under normoxia or hypoxia conditions for 24 hr were subjected to anti-MSI1 (green) immunostaining and DAPI (blue) nuclear counterstaining. Images were acquired from Carl Zeiss confocal microscope system. The intensity of green fluorescence in nuclear and cytosol was quantified and shown as relative percentage in the graph at the right. […] FIG. 1D provides a schematic showing the mutation sites in the NLS (orange) and NES (red) of human MSI1. All constructs were sub-cloned into p-3×Flag-Myc-CMV expression vector. […] Images were acquired from Carl Zeiss confocal microscope system, and the quantification of fluorescent intensity in the nuclear and cytosolic compartments was shown as relative percentage in the graph at the left. […] Tumor size was measure with a caliper at the indicated time points. […] The tumor size was measured with a caliper at the indicated time points. […]
The ratio of MSI1 expression in each group was presented in the graph. […] Hypoxia-induced apoptosis was withdrawn by the over-expression of wild-type MSI1 but not in mutant MSI1 groups determined by annexin V staining, MTT assay, and colony forming assay. […]

Data set [6] concerns the target T1, His-tagged AGO2 recombinant protein. Briefly: PepSpot high-throughput peptide tiling array. As to conditions: 27 peptides of MSI1 C-terminus. Format: binding. The procedure:
as §1
To rapidly screen the putative binding hotspots along the C-terminus of MSI1, we mimicked the epitope screening method by dotting the synthetic short peptides on nitrocellulose membrane and incubated with purified AGO2 protein^39. The C-terminus of MSI1 (201-262) was divided into 27 individual synthetic peptides with N-terminal amine attached on the nitrocellulose. Each peptide is 15 amino acids in length and has […] overlapping with the previous neighboring peptide (Suppl. Table IV). The purchased PepSpot membrane (JPT peptide technologies, Berlin, Germany) was firstly rinsed by methanol for 5 minutes, followed by Tris buffer saline supplemented with 0.1% Tween-20 (TBS-T) washing thrice. […]

Consider 4 compounds from US11364280B2, “Method for blocking stress-induced tumor progression” (Taipei Veterans General Hospital, priority 2018, dated 2022).

No end group written: not given here. Bounds are passed on as bounds.

As usually defined, the Kd is the concentration at which binding is half-saturated. For orientation: half-life means the time in which the quantity being followed falls by half. Low values mean rapid decline, high ones slow decline.

T1 sequence (Q9UKV8 whole entry): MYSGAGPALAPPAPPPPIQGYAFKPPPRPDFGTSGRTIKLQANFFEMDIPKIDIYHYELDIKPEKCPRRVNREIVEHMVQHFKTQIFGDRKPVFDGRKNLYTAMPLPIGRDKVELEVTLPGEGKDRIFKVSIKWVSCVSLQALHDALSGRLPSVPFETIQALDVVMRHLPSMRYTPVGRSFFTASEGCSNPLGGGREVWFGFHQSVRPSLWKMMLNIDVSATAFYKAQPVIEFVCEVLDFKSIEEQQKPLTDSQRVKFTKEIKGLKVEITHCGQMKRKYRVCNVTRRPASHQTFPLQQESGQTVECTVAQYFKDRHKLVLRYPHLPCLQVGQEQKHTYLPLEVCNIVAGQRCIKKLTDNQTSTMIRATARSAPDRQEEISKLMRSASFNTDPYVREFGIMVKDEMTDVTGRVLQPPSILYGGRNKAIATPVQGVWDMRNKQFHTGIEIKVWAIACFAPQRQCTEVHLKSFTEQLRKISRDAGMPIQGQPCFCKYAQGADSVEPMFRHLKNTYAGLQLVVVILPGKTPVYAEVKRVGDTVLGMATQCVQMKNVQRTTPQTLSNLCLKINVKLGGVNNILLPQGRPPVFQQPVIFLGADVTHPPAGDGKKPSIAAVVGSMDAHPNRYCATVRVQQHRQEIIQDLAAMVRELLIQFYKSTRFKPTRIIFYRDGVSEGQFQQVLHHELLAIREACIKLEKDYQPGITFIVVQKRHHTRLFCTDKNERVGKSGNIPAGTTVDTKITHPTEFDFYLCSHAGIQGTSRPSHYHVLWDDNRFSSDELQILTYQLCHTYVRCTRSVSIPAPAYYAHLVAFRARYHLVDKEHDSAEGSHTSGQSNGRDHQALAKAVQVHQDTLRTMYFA
T2 sequence (Q9UKV8 whole entry): as above
Procedure for in vitro: After 0.5, 1, 2, 4 and 6 hours, cell lysates were collected and the fluorescent intensity was detected by ELISA reader. N=3 at each time point. […] Cells were washed and observed under microscopy at the indicated time points. […] To facilitate comparison of intake and degradation dynamics, mean fluorescence values were normalized to stating fluorescence. All data represent three independent experiments.

For HSLGGPLIATAFTNGGRKKRRQRRRPPQ [TAT-26], the Kd in data set [1] was 4.63 µM. Also, the “effect of MSI1/AGO2 binding on downstream mRNA” value in data set [2] is recorded as “reversed”. The compound further came in with a half-life in “in vitro” of at most 4 h. Moreover, the “effect on MSI1/AGO2 interaction (co-IP immunoblot)” value on MSI1/AGO2 interaction [3] is given as “effectively abrogated the MSI1/AGO2 interaction”. Also, on MSI1/AGO2 interaction [4], the “effect on bioluminescent signal of split Gaussia luciferase” value is “dramatically turned down the bioluminescent signal in vitro and in vivo”. For the same compound, in the data set on 05 MG cells (05 MG cells), the “time to significant cellular uptake” value is listed as “within one hour”. Moreover, the EC50 in the data set on 05 MG cells (read-out: half-uptake concentration (EC50), fluorescein labeled peptides, 05 MG cell line) was 9.02 µM.
Turning to `CCC(=C/[C@H](C)C/C=C/C(C)=C/[C@@H](C)C(=O)[C@@H](C)[C@H](O)[C@@H](C)C/C(C)=C/C(=O)O)/C=C/[C@@H]1OC(=O)C=C[C@@H]1C` [Leptomycin B], in data set [5], the “MSI1 translocation into the cytosol” value is given as “strongly reduced MSI1 translocation into the cytosol”.
For the compound HSLGGPLIATAFTNG [compound 26], the “binding of recombinant AGO2 to arrayed peptide” value in data set [6] is given as “preferentially bound”.
Same read-out and setting: the entry for YQFPEFRVERTPLPS [compound 11] is “preferentially bound”.
